Test results published in US4698350A, “1-ethyl-6-fluoro-1,4-dihydro- 7-(2,6-dimethyl-4-pyridinyl)-4-oxo-3-quinolinecarboxylic acid and antibacterial use thereof” (Sterling Drug Inc., priority 1984, dated 1987).
≈ marks a conversion by molar mass, not a printed value. Structures can show the parent of a compound that is named as a salt. Where two headings read alike, the source gives them in different places.

Columns and labels:
E. coli = assay: In vitro MIC/MBC summary (Table II); type: cell-based; conditions: Escherichia coli, 5 E. coli strains
Description: (§1) Win 52,522 and Win 35,439 were solubilized in 0.1 ml of 0.5 N NaOH/mg of compound and diluted in sterile distilled water to 160 mcg/ml. Vancomycin and methicillin were solubilized in sterile distilled water to 1250 mcg/ml of base compound. The stock solutions were sterilized by filtration through membrane filters with a 0.45 μm pore size.
(§2) The bacterial cultures listed in Table I (hereinbelow) were grown overnight at 37° C. in MHB for all cultures except the Streptococcus strains. These were grown in BHI+10% NHS. The overnight broth cultures were adjusted to an optical density of 0.10 (650 nm, B L Spectronic 20) in sterile distilled water and subsequently diluted to 6.7×10^6 cells/ml in MHB or BHI+1% NHS.
(§3) Serial two-fold dilutions of the compound solutions were prepared in MHB (or in BHI+1% NHS for tests with Streptococci) and dispensed into 96-well microtiter trays in a volume of 0.1 ml/well using a Sandy Springs (Bellco Glass Co.) dispenser. The trays were then inoculated with 0.0015 ml of a suspension containing 6.7×10^6 cells/ml of the appropriate inoculum using a MIC-2000 inoculator (Dynatech Corp.) resulting in a final inoculum of approximately 1×10^4 cells/well or 1×10^5 cells/ml. The trays were incubated at 37° C. for 18-20 hours and the minimal inhibitory concentration (MIC), defined as the lowest concentration of compound to inhibit visible bacterial growth, was recorded.
After the MIC values were recorded, the contents in the microtiter trays were thoroughly mixed on a Bellco Mini-orbital Shaker (Bellco Glass Co.) for 3 min. at a setting of 8. A portion (0.0015 ml) from each well was then transferred via an MIC-2000 inoculator to plates containing MHA or BHI agar+10% NHS. The plates were incubated at 37° C. for 18-20 hrs. The minimal bactericidal concentration (MBC), defined as the lowest concentration of compound that prevented the formation of a recognizable colony on the agar surface, was recorded.

Gram-positive cocci = assay: In vitro antibacterial activity; type: cell-based, S. aureus, S. epidermidis and Streptococcus species
Description: as §1, §2
as §3, with “recorded. […]” for “recorded.”

F. nucleatum = assay: Agar dilution MIC, anaerobic microorganisms; type: cell-based; conditions: Fusobacterium nucleatum, 48 h; F. nucleatum; read-out: MIC
Description: (§4) 1. Maintenance. Prior to use, all strains were maintained in the lyophilized state. During the study, cultures were examined on blood agar basal medium supplemented with 5.0% (v/v) defibrinated rabbit blood. Culture transfer was accomplished weekly with all cultures being incubated in an anaerobic atmosphere (GasPak jar; BBL).
(§5) 2. Agar Medium. The basal test medium consisted of trypticase soy agar (40 g), yeast extract (1 g), glucose (2 g) and 960 ml of distilled water pH 7.2. [Mashimo et al., J. Clin. Micro. 17, 187-191 (1983)]. Subsequent to sterilization and cooling to 50° C., the medium was supplemented with 4% (v/v) defibrinated rabbit blood and 0.5 μg/ml menadione (Vitamin K3) The agent under evaluation was also added at this time to the concentration desired. Subsequent to pouring of the plates, they were permitted to dry at 4° C. for 24 hr.
(§6) 3. Determination of Agent MIC. The minimal inhibitory concentration (MIC) of the various test agents was determined using an agar dilution technique. Agents and appropriate reference compounds were added to achieve a series of concentrations ranging between 32 μg/ml and 0.007 μg/ml. The inocula were prepared from 96-hr. cultures grown on the maintenance medium. Subsequent to a purity evaluation, colonies were removed and suspended in trypticase soy broth supplemented with 5 μg/ml menadione and 2% lysed rabbit blood filtrate to achieve an OD650 of 0.1 (this corresponded to approximately 10^8 cells/ml). Cultures were inoculated aerobically on the modified trypticase soy blood agar plates by use of a Steer's replicator (which delivers about 10^5 cells per spot). The plates were allowed to dry for a time not exceeding 30 min. and then incubated at 37° C. under an atmosphere of […], 10% H2 and 5% CO2 maintained in an anaerobic chamber (Coy Manufacturing Co.) for 48 hr. The MIC was defined as the lowest concentration completely inhibiting growth.
(§7) Tetracycline stock solutions (1 mg/ml) were made subsequent to dissolution in water. Stock solutions (1 mg/ml) of the remaining test compounds were made subsequent to dissolution in 1/10 N NaOH.

Eikenella corrodens = assay: Agar dilution MIC, anaerobic microorganisms; type: cell-based; conditions: 48 h, read-out: MIC
Description: as §4, §5, §6, §7

F. polymorphum = assay: Agar dilution MIC, anaerobic microorganisms; type: cell-based; conditions: 48 h; F. polymorphum; read-out: MIC
Description: as §4, §5, §6, §7

Capnocytophaga suptigena = assay: Agar dilution MIC, anaerobic microorganisms; type: cell-based; conditions: 48 h; Capnocytophaga suptigena; read-out: MIC
Description: as §4, §5, §6, §7

B. gingivalis = assay: Agar dilution MIC, anaerobic microorganisms; type: cell-based; conditions: Porphyromonas gingivalis, 48 h; B. gingivalis; read-out: MIC
Description: as §4, §5, §6, §7

B. oralis = assay: Agar dilution MIC, anaerobic microorganisms; type: cell-based; conditions: Hoylesella oralis, 48 h; B. oralis; read-out: MIC
Description: as §4, §5, §6, §7

B. intermedius = assay: Agar dilution MIC, anaerobic microorganisms; type: cell-based; conditions: Prevotella intermedia, 48 h; B. intermedius; read-out: MIC
Description: as §4, §5, §6, §7

A. viscosus = assay: Agar dilution MIC, anaerobic microorganisms; type: cell-based; conditions: Actinomyces viscosus, 48 h; A. viscosus; read-out: MIC
Description: as §4, §5, §6, §7

A. actinomycetemcomitans = assay: Agar dilution MIC, anaerobic microorganisms; type: cell-based; conditions: Aggregatibacter actinomycetemcomitans, 48 h; A. actinomycetemcomitans; read-out: MIC
Description: as §4, §5, §6, §7

B. fragilis = assay: Agar dilution MIC, anaerobic microorganisms; type: cell-based; conditions: Bacteroides fragilis, 48 h; B. fragilis; read-out: MIC
Description: as §4, §5, §6, §7

B. melaninogenicus = assay: Agar dilution MIC, anaerobic microorganisms; type: cell-based; conditions: 48 h; B. melaninogenicus; read-out: MIC
Description: as §4, §5, §6, §7

Wolinella recta = assay: Agar dilution MIC, anaerobic microorganisms; type: cell-based; conditions: Campylobacter rectus, 48 h
Description: as §4, §5, §6, §7

Campylobacter sputorum = assay: Agar dilution MIC, anaerobic microorganisms; type: cell-based; conditions: 48 h
Description: as §4, §5, §6, §7

Structure (SMILES) | MIC (E. coli) [µg/mL] | MIC50 (E. coli) [µg/mL] | MIC90 (E. coli) [µg/mL] | MBC (E. coli; read-out: MBC 50%) [µg/mL] | MBC (E. coli; read-out: MBC Range) [µg/mL] | times more potent in vitro than Win 35,439 (Gram-positive cocci; several Gram-positive cocci) | MIC (F. nucleatum) [µg/mL] | MIC (Eikenella corrodens) [µg/mL] | MIC (F. polymorphum) [µg/mL] | MIC (Capnocytophaga suptigena) [µg/mL] | MIC (B. gingivalis) [µg/mL] | MIC (B. oralis) [µg/mL] | MIC (B. intermedius) [µg/mL] | MIC (A. viscosus) [µg/mL] | MIC (A. actinomycetemcomitans) [µg/mL] | MIC (B. fragilis) [µg/mL] | MIC (B. melaninogenicus) [µg/mL] | MIC (Wolinella recta) [µg/mL] | MIC (Campylobacter sputorum) [µg/mL] | bactericidal / bacteriostatic (Gram-positive cocci; Gram-positive cocci)
CCn1cc(C(=O)O)c(=O)c2cc(F)c(-c3cc(C)nc(C)c3)cc21 [Win 52,522, 1-ethyl-6-fluoro-1,4-dihydro-7-(2,6-dimethyl-4-pyridinyl)-4-oxo-3-quinolinecarboxylic acid] | 0.25 to 0.5 (≈ 0.735 to 1.47 µM) | 0.25 (≈ 0.735 µM) | 0.25 (≈ 0.735 µM) | 0.25 (≈ 0.735 µM) | 0.25 to 0.5 (≈ 0.735 to 1.47 µM) | 2-8 times | 0.5 (≈ 1.47 µM) | 0.5 (≈ 1.47 µM) | 0.5 (≈ 1.47 µM) | 0.06 (≈ 0.176 µM) | 2 (≈ 5.88 µM) | 4 (≈ 11.8 µM) | 0.06 (≈ 0.176 µM) | 1 (≈ 2.94 µM) | 0.12 (≈ 0.353 µM) | 4 (≈ 11.8 µM) | 1 (≈ 2.94 µM) | 0.12 (≈ 0.353 µM) | 8 (≈ 23.5 µM) | –
COc1cccc(OC)c1C(=O)N[C@@H]1C(=O)N2[C@@H]1SC(C)(C)[C@@H]2C(=O)O [Methicillin, 6-(2,6-dimethoxybenzamido)penicillanic acid sodium salt] | – | – | – | – | – | – | – | – | – | – | – | – | – | – | – | – | – | – | – | bactericidal
CCn1cc(C(=O)O)c(=O)c2ccc(-c3cc(C)nc(C)c3)cc21 [Win 35,439, 1-ethyl-1,4-dihydro-7-(2,6-dimethyl-4-pyridinyl)-4-oxo-3-quinolinecarboxylic acid] | 0.5 to 2 (≈ 1.55 to 6.2 µM) | 0.5 (≈ 1.55 µM) | 2 (≈ 6.2 µM) | 0.5 (≈ 1.55 µM) | 0.5 to 2 (≈ 1.55 to 6.2 µM) | – | 4 (≈ 12.4 µM) | 2 (≈ 6.2 µM) | 4 (≈ 12.4 µM) | 0.5 (≈ 1.55 µM) | > 10 | > 10 | 0.25 (≈ 0.776 µM) | 8 (≈ 24.8 µM) | 0.25 (≈ 0.776 µM) | > 10 | 8 (≈ 24.8 µM) | 0.5 (≈ 1.55 µM) | > 10 | –
